Source: article PMC11059313 (Methods in molecular biology (Clifton, N.J.), 2023)
Non-standard residues stand in square brackets, D forms with d. No end group written: not given here. pY = N[C@@H](Cc1ccc(OP(=O)(O)O)cc1)C(=O)O

B1: p190RhoGAP pTyr-1105 phosphopeptide (residues 1100-1112) (peptide)
peptide: Ac-EEENI[pY]SVPHDST-NH2
SMILES: CC[C@H](C)[C@H](NC(=O)[C@H](CC(N)=O)NC(=O)[C@H](CCC(=O)O)NC(=O)[C@H](CCC(=O)O)NC(=O)[C@H](CCC(=O)O)NC(C)=O)C(=O)N[C@@H](Cc1ccc(OP(=O)(O)O)cc1)C(=O)N[C@@H](CO)C(=O)N[C@H](C(=O)N1CCC[C@H]1C(=O)N[C@@H](Cc1c[nH]cn1)C(=O)N[C@@H](CC(=O)O)C(=O)N[C@@H](CO)C(=O)N[C@H](C(N)=O)[C@@H](C)O)C(C)C

Legend:
[1] = pH 7.4
[2] = biological target: T1, p120RasGAP N-terminal SH2 domain (residues 174-280, C236S, C261S) (UniProt P20936 174-280, C236S | C261S); test: co-crystallisation
T1 sequence (looked up): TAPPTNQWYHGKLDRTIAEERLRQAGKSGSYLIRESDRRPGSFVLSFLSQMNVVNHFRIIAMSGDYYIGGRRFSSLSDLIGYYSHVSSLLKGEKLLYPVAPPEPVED

| Molecule | Maximum Solubility [1] [mg/mL] | binding result [2] |
| --- | --- | --- |
| D[pY]AEPMDA [pY-1087] | 10 |  |
| B1 |  | binds |
